Where two headings read alike, the source gives them in different places.
Tests used:
[1] = tested on: MALME-3M; experiment: SRB 48 h growth assay, Melanoma MALME-3M; assay type: cell-based, human; conditions: for GI50 / CC50: Homo sapiens; for CC50: read-out: Log10 LC50 (converted)
[2] = tested on: SK-MEL-28; experiment: SRB 48 h growth assay, Melanoma SK-MEL-28; assay type: cell-based, human; conditions: SK-MEL-28, Melanoma
[3] = tested on: NCI-H460; experiment: SRB 48 h growth assay, Non-small Cell Lung NCI-H460; assay type: cell-based, human
[4] = tested on: U251; experiment: SRB 48 h growth assay, CNS U251; assay type: cell-based, human; conditions: for GI50 / CC50: Homo sapiens; for CC50: U-251, read-out: Log10 LC50 (converted)
[5] = tested on: HCC-2998; experiment: SRB 48 h growth assay, Colon HCC-2998; assay type: cell-based, human; conditions: HCC-2998, Colon; for GI50 / CC50: Homo sapiens; for CC50: read-out: Log10 LC50 (converted)
[6] = tested on: CAKI-1; experiment: SRB 48 h growth assay, Renal CAKI-1; assay type: cell-based, human; conditions: CAKI-1, Renal; for GI50 / CC50: Homo sapiens; for CC50: read-out: Log10 LC50 (converted)
[7] = tested on: SK-MEL-2; experiment: SRB 48 h growth assay, Melanoma SK-MEL-2; assay type: cell-based, human; conditions: SK-MEL-2, Melanoma
[8] = tested on: UO-31; experiment: SRB 48 h growth assay, Renal UO-31; assay type: cell-based, human; conditions: UO-31, Renal; for GI50 / CC50: Homo sapiens; for CC50: read-out: Log10 LC50 (converted)
[9] = tested on: IGROV1; experiment: SRB 48 h growth assay, Ovarian IGROV1; assay type: cell-based, human; conditions: for GI50 / CC50: Homo sapiens; for CC50: IGROV-1, read-out: Log10 LC50 (converted)
[10] = tested on: MOLT-4; experiment: SRB 48 h growth assay, Leukemia MOLT-4; assay type: cell-based, human; conditions: MOLT-4, Leukemia; for GI50 / CC50: Homo sapiens; for CC50: read-out: Log10 LC50 (converted)
[11] = tested on: SR; experiment: SRB 48 h growth assay, Leukemia SR; assay type: cell-based, human; conditions: for GI50 / CC50: Homo sapiens; for CC50: read-out: Log10 LC50 (converted)
[12] = tested on: SN12C; experiment: SRB 48 h growth assay, Renal SN12C; assay type: cell-based, human; conditions: for GI50 / CC50: Homo sapiens; for CC50: read-out: Log10 LC50 (converted)
[13] = tested on: HT-29; experiment: SRB 48 h growth assay, Colon HT-29; assay type: cell-based, human; conditions: HT-29, Colon; for GI50 / CC50: Homo sapiens; for CC50: read-out: Log10 LC50 (converted)
[14] = tested on: eight renal cancer cell line (786-0, A498, ACHN, CAKI-1, SN12C, TK-10, UO-31 and RXF 393); experiment: in vitro anticancer activity, renal panel; assay type: cell-based; conditions: Homo sapiens; eight renal cancer cell lines, exposure at least 48 h; read-out: in vitro anticancer activity, range over panel
[15] = read-out: Growth Inhibition GI50
[16] = read-out: Log10 GI50 (converted)
[17] = Homo sapiens, read-out: Growth Inhibition GI50
[18] = Homo sapiens, read-out: Log10 GI50 (converted)
[19] = Homo sapiens, read-out: Log10 LC50 (converted)
[20] = U-251, read-out: Growth Inhibition GI50
[21] = U-251, read-out: Log10 GI50 (converted)
[22] = IGROV-1, read-out: Growth Inhibition GI50
[23] = IGROV-1, read-out: Log10 GI50 (converted)

Compound: C#Cc1ccc(-n2c(/C=C/c3ccc(C(F)(F)F)cc3)nc3ncccc3c2=O)cc1 [4c, (E)-3-(4-Ethynylphenyl)-2-(4-(trifluoromethyl)styryl)pyrido[2,3-d]pyrimidin-4(3H)-one]
- Log10 TGI50 [1]: −5.45
- GI50 [1, 15]: 1640 nM
- GI50 [1, 16]: 1660 nM
- CC50 [1]: 7760 nM
- GI50 [2, 17]: 1780 nM
- GI50 [2, 18]: 1780 nM
- CC50 [2, 19]: 6030 nM
- Log10 TGI50 [2]: −5.49
- Log10 TGI50 [3]: −5.38
- GI50 [3, 17]: 1980 nM
- GI50 [3, 18]: 2000 nM
- LC50 [3, 19]: 8710 nM
- Log10 TGI50 [4]: −5.50
- GI50 [4, 20]: 1670 nM
- GI50 [4, 21]: 1660 nM
- CC50 [4]: 5890 nM
- Log10 TGI50 [5]: −5.46
- GI50 [5, 15]: 1960 nM
- GI50 [5, 16]: 1950 nM
- CC50 [5]: 6170 nM
- Log10 TGI50 [6]: −5.21
- GI50 [6, 15]: 2260 nM
- GI50 [6, 16]: 2240 nM
- CC50 [6]: > 100000 nM
- GI50 [7, 17]: 2030 nM
- GI50 [7, 18]: 2040 nM
- CC50 [7, 19]: 8320 nM
- Log10 TGI50 [7]: −5.39
- GI50 [8, 15]: 1430 nM
- GI50 [8, 16]: 1450 nM
- CC50 [8]: 9330 nM
- Log10 TGI50 [8]: −5.44
- Log10 TGI50 [9]: −5.40
- GI50 [9, 22]: 1960 nM
- GI50 [9, 23]: 1950 nM
- CC50 [9]: 8320 nM
- GI50 [10, 15]: 3010 nM
- GI50 [10, 16]: 3020 nM
- CC50 [10]: > 100000 nM
- Log10 TGI50 [10]: −5.06
- Log10 TGI50 [11]: −5.09
- GI50 [11, 15]: 2000 nM
- GI50 [11, 16]: 2000 nM
- CC50 [11]: > 100000 nM
- Log10 TGI50 [12]: −5.25
- GI50 [12, 15]: 2080 nM
- GI50 [12, 16]: 2090 nM
- CC50 [12]: > 100000 nM
- Log10 TGI50 [13]: −5.40
- GI50 [13, 15]: 2030 nM
- GI50 [13, 16]: 2040 nM
- CC50 [13]: 7760 nM
- GI50 [14]: 1690 to 4080 nM

Compound: C#Cc1ccc(-n2c(/C=C/c3ccc4ccccc4n3)nc3ncccc3c2=O)cc1 [4t, (E)-3-(4-Ethynylphenyl)-2-(2-(quinolin-2-yl)vinyl)pyrido[2,3-d]pyrimidin-4(3H)-one]
- Log10 TGI50 [1]: −5.50
- GI50 [1, 15]: 1210 nM
- GI50 [1, 16]: 1200 nM
- CC50 [1]: 8320 nM
- GI50 [2, 17]: 1050 nM
- GI50 [2, 18]: 1050 nM
- Log10 TGI50 [2]: −5.51
- Log10 TGI50 [3]: −6.03
- GI50 [3, 17]: 290 nM
- GI50 [3, 18]: 302 nM
- Log10 TGI50 [4]: −5.84
- GI50 [4, 20]: 340 nM
- GI50 [4, 21]: 339 nM
- CC50 [4]: 8130 nM
- Log10 TGI50 [5]: −5.92
- GI50 [5, 15]: 340 nM
- GI50 [5, 16]: 347 nM
- CC50 [5]: 6310 nM
- Log10 TGI50 [6]: −5.81
- GI50 [6, 15]: 320 nM
- GI50 [6, 16]: 324 nM
- CC50 [6]: > 100000 nM
- GI50 [7, 17]: 410 nM
- GI50 [7, 18]: 417 nM
- Log10 TGI50 [7]: −5.80
- GI50 [8, 15]: 310 nM
- GI50 [8, 16]: 316 nM
- CC50 [8]: 6920 nM
- Log10 TGI50 [8]: −5.78
- Log10 TGI50 [9]: −5.87
- GI50 [9, 22]: 400 nM
- GI50 [9, 23]: 398 nM
- CC50 [9]: 5370 nM
- GI50 [10, 15]: 450 nM
- GI50 [10, 16]: 457 nM
- CC50 [10]: > 100000 nM
- Log10 TGI50 [10]: >−4.00
- GI50 [11, 15]: 270 nM
- GI50 [11, 16]: 275 nM
- CC50 [11]: > 100000 nM
- Log10 TGI50 [12]: −5.67
- GI50 [12, 15]: 390 nM
- GI50 [12, 16]: 389 nM
- CC50 [12]: > 100000 nM
- Log10 TGI50 [13]: −5.96
- GI50 [13, 15]: 360 nM
- GI50 [13, 16]: 372 nM
- CC50 [13]: 4270 nM
- GI50 [14]: 1480 to 8780 nM

Source: patent US9783537B2, “3-(4-ethylnylphenyl) pyridopyrimidinone compounds and process for preparation thereof useful as potential anticancer agents” (Council of Scientific & Industrial Research, priority 2013, dated 2017)
